{"source": "the kinase profiling compilation of Christmann-Franck et al. (2016)", "assay_in_all_cases": "radiometric filter-binding kinase assay, Kinase HotSpot", "conditions_in_all_cases": "compound 0.5 µM; ATP 10 µM", "key": {"[1]": {"target": "YES1 (human) (UniProt P07947)"}, "[2]": {"target": "CDK6 CCND1 (human) (UniProt Q00534+P24385)"}, "[3]": {"target": "HIPK4 (human) (UniProt Q8NE63)"}, "[4]": {"target": "CSNK1G3 (human) (UniProt Q9Y6M4)"}, "[5]": {"target": "MAPK11 (human) (UniProt Q15759)"}, "[6]": {"target": "CDK6 CCND3 (human) (UniProt P30281+Q00534)"}, "[7]": {"target": "MAP3K2 (human) (UniProt Q9Y2U5)"}, "[8]": {"target": "RPS6KA3 KD1 KD2 (human) (UniProt P51812)"}, "[9]": {"target": "ACVRL1 (human) (UniProt P37023)"}, "[10]": {"target": "CAMK2D (human) (UniProt Q13557)", "sequence (Q13557 whole entry, looked up)": "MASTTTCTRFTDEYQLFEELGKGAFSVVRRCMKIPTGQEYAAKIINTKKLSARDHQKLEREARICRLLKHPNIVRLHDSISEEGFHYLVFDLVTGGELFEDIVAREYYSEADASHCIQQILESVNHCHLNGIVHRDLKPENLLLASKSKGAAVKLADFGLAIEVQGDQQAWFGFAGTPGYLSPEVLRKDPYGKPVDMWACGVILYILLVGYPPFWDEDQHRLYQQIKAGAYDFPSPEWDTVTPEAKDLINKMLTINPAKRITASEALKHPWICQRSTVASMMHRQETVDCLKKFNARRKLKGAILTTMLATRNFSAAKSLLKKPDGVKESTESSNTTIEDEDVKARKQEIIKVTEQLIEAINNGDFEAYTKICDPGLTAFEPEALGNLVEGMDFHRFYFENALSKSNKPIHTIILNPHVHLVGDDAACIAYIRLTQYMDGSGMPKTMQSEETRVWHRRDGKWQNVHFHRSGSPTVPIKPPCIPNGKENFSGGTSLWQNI"}, "[11]": {"target": "CAMK2B (human) (UniProt Q13554)"}, "[12]": {"target": "STK24 (human) (UniProt Q9Y6E0)", "sequence (Q9Y6E0 whole entry, looked up)": "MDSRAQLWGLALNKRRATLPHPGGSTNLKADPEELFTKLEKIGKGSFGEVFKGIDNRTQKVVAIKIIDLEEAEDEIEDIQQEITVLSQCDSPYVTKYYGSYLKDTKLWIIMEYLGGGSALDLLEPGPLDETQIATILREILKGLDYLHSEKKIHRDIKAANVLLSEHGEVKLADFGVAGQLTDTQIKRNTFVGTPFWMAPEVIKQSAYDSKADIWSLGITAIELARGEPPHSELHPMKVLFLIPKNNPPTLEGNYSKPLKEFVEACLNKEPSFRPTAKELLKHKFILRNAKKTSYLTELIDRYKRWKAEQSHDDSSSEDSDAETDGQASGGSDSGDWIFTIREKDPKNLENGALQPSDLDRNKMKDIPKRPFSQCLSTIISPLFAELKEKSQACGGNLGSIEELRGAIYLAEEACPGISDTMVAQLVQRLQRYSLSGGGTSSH"}, "[13]": {"target": "BRSK2 (human) (UniProt Q8IWQ3)"}, "[14]": {"target": "SLK (human) (UniProt Q9H2G2)"}, "[15]": {"target": "STK25 (human) (UniProt O00506)", "sequence (O00506 whole entry, looked up)": "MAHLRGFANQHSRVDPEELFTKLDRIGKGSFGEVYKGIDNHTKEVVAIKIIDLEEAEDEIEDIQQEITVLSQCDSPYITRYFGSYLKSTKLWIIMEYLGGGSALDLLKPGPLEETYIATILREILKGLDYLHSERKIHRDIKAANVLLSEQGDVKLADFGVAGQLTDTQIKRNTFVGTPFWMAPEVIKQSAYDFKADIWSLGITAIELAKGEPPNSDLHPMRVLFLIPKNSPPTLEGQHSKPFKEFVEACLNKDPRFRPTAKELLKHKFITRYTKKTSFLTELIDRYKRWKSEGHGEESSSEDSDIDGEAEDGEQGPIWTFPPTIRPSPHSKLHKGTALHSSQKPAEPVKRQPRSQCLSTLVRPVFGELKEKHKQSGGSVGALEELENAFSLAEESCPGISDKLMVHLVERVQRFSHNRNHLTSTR"}, "[16]": {"target": "DYRK3 (human) (UniProt O43781)"}, "[17]": {"target": "SRC (human) (UniProt P12931)"}, "[18]": {"target": "HIPK1 (human) (UniProt Q86Z02)"}, "[19]": {"target": "STK17A (human) (UniProt Q9UEE5)"}, "[20]": {"target": "CLK1 (human) (UniProt P49759)"}, "[21]": {"target": "EPHA4 (human) (UniProt P54764)", "sequence (P54764 whole entry, looked up)": "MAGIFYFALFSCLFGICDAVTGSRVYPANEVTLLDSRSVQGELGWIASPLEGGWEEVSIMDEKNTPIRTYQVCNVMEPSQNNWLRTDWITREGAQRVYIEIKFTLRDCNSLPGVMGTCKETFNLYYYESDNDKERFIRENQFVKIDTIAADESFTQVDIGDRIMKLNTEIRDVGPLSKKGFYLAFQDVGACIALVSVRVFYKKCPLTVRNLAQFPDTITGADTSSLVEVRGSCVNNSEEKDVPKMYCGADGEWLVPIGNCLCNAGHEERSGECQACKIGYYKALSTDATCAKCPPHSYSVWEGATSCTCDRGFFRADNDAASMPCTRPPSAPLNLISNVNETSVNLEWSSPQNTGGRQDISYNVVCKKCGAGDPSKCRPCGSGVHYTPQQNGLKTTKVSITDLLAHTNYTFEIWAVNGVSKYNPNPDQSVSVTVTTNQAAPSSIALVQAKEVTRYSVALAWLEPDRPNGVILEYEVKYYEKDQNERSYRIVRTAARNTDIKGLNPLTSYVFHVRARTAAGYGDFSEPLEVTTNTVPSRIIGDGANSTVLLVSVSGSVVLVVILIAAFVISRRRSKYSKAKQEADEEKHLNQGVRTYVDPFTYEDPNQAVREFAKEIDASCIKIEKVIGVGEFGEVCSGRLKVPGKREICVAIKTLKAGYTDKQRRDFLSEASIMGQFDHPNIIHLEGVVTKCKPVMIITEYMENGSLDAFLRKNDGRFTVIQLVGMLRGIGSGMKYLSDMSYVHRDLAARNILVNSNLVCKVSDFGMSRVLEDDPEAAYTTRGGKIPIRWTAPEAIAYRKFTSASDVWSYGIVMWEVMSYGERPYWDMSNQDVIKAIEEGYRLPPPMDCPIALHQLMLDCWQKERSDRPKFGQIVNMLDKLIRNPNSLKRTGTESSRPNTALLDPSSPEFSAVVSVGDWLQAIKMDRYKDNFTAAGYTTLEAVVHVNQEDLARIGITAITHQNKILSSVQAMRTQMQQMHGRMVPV"}, "[22]": {"target": "MAP3K7 TAB1 (human) (UniProt O43318+Q15750)"}, "[23]": {"target": "CAMK1D (human) (UniProt Q8IU85)"}, "[24]": {"target": "TYRO3 (human) (UniProt Q06418)", "sequence (Q06418 whole entry, looked up)": "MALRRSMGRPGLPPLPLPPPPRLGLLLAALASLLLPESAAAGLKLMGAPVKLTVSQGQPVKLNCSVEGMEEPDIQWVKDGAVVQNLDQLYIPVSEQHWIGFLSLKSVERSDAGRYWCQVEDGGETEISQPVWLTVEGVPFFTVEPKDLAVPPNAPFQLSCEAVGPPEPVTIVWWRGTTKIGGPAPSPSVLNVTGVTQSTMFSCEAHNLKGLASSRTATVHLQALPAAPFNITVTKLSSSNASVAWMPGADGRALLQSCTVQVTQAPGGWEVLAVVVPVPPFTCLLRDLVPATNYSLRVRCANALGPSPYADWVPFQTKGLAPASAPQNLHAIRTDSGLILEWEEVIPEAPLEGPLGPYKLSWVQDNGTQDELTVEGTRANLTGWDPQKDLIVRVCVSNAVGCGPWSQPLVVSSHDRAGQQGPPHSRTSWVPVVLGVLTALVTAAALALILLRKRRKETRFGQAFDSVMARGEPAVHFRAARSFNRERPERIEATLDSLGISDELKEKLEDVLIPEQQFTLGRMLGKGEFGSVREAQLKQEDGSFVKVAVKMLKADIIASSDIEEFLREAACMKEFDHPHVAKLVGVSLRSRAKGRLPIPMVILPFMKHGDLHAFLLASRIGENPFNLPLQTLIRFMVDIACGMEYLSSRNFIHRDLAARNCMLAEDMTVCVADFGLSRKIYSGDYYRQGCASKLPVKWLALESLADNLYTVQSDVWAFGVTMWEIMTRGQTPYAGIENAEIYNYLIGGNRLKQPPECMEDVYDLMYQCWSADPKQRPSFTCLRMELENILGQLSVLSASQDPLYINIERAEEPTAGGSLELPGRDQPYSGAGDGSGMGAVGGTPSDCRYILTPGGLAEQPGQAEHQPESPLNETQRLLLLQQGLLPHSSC"}, "[25]": {"target": "CSF1R (human) (UniProt P07333)"}, "[26]": {"target": "DYRK1B (human) (UniProt Q9Y463)"}, "[27]": {"target": "MAPKAPK2 (human) (UniProt P49137)", "sequence (P49137 whole entry, looked up)": "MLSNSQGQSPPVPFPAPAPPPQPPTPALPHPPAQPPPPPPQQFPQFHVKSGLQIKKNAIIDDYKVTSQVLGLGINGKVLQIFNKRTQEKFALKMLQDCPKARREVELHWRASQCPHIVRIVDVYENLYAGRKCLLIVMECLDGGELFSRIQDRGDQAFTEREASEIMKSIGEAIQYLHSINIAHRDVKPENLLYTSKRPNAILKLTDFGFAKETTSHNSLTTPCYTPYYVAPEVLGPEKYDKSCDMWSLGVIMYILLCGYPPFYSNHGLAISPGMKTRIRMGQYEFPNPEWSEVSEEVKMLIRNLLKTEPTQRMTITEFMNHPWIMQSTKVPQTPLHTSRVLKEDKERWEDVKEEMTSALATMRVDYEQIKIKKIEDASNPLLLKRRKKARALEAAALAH"}, "[28]": {"target": "SGK3 (human) (UniProt Q96BR1)"}, "[29]": {"target": "BRSK1 (human) (UniProt Q8TDC3)"}, "[30]": {"target": "MAP3K14 (human) (UniProt Q99558)"}, "[31]": {"target": "FGFR3 (human) (UniProt P22607)"}, "[32]": {"target": "GRK5 (human) (UniProt P34947)", "sequence (P34947 whole entry, looked up)": "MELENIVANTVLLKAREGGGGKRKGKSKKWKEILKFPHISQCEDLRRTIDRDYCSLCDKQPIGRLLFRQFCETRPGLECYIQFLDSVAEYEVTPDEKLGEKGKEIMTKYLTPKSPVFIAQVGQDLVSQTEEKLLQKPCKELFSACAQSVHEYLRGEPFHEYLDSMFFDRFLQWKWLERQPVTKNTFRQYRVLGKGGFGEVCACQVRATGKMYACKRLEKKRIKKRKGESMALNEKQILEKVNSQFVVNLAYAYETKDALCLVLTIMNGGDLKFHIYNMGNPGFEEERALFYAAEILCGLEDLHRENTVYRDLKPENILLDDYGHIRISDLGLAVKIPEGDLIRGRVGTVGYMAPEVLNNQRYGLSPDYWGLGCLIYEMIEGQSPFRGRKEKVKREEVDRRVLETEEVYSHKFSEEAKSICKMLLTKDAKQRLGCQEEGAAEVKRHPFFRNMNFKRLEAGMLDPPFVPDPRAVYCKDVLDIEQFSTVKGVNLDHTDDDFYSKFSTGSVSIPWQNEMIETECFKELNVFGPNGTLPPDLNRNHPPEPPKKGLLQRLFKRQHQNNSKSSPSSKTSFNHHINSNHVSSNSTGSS"}, "[33]": {"target": "ERBB2 (human) (UniProt P04626)"}, "[34]": {"target": "RPS6KA2 KD1 KD2 (human) (UniProt Q15349)", "sequence (Q15349 whole entry, looked up)": "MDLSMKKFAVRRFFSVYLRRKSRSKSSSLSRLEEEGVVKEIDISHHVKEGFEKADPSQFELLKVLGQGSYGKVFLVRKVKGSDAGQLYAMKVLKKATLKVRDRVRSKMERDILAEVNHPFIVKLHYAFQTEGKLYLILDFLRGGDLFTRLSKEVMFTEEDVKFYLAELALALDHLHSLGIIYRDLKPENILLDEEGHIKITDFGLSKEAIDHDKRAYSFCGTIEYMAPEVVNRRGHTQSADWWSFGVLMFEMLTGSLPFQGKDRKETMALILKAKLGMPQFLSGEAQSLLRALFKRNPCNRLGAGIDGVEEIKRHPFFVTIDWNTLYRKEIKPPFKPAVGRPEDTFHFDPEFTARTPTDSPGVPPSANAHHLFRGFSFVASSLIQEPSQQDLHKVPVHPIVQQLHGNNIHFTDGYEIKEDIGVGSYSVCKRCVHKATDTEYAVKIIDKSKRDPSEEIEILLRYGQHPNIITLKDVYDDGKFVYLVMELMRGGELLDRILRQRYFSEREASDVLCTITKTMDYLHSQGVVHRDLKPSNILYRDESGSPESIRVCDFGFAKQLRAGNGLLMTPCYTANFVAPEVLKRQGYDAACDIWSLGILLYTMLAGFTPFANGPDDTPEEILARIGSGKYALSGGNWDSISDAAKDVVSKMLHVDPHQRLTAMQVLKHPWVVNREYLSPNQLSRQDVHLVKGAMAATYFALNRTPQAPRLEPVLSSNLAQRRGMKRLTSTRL"}, "[35]": {"target": "NTRK3 (human) (UniProt Q16288)"}, "[36]": {"target": "NLK (human) (UniProt Q9UBE8)"}, "[37]": {"target": "CSNK1A1 (human) (UniProt P48729)"}, "[38]": {"target": "TTK (human) (UniProt P33981)"}, "[39]": {"target": "CDK9 CCNK (human) (UniProt O75909+P50750)"}, "[40]": {"target": "MST4 (human) (UniProt Q9P289)"}, "[41]": {"target": "PRKCE (human) (UniProt Q02156)"}}}
{"smiles": "CCc1nc(-c2ccc(OC)cc2)[nH]c1-c1ccncc1", "values": [{"measurement": "residual activity", "setting": "[1]", "value": 95.1, "unit": "%"}, {"measurement": "residual activity", "setting": "[2]", "value": 101, "unit": "%"}, {"measurement": "residual activity", "setting": "[3]", "value": 90, "unit": "%"}, {"measurement": "residual activity", "setting": "[4]", "value": 106, "unit": "%"}, {"measurement": "residual activity", "setting": "[5]", "value": 104, "unit": "%"}, {"measurement": "residual activity", "setting": "[6]", "value": 101, "unit": "%"}, {"measurement": "residual activity", "setting": "[7]", "value": 98.2, "unit": "%"}, {"measurement": "residual activity", "setting": "[8]", "value": 98.7, "unit": "%"}, {"measurement": "residual activity", "setting": "[9]", "value": 101, "unit": "%"}, {"measurement": "residual activity", "setting": "[10]", "value": 96.4, "unit": "%"}, {"measurement": "residual activity", "setting": "[11]", "value": 97.1, "unit": "%"}, {"measurement": "residual activity", "setting": "[12]", "value": 93.2, "unit": "%"}, {"measurement": "residual activity", "setting": "[13]", "value": 105, "unit": "%"}, {"measurement": "residual activity", "setting": "[14]", "value": 99.7, "unit": "%"}, {"measurement": "residual activity", "setting": "[15]", "value": 116, "unit": "%"}, {"measurement": "residual activity", "setting": "[16]", "value": 95.5, "unit": "%"}, {"measurement": "residual activity", "setting": "[17]", "value": 95.3, "unit": "%"}, {"measurement": "residual activity", "setting": "[18]", "value": 97.7, "unit": "%"}, {"measurement": "residual activity", "setting": "[19]", "value": 96.1, "unit": "%"}, {"measurement": "residual activity", "setting": "[20]", "value": 105, "unit": "%"}, {"measurement": "residual activity", "setting": "[21]", "value": 105, "unit": "%"}, {"measurement": "residual activity", "setting": "[22]", "value": 96.6, "unit": "%"}, {"measurement": "residual activity", "setting": "[23]", "value": 104, "unit": "%"}, {"measurement": "residual activity", "setting": "[24]", "value": 97.9, "unit": "%"}, {"measurement": "residual activity", "setting": "[25]", "value": 100, "unit": "%"}, {"measurement": "residual activity", "setting": "[26]", "value": 106, "unit": "%"}, {"measurement": "residual activity", "setting": "[27]", "value": 100, "unit": "%"}, {"measurement": "residual activity", "setting": "[28]", "value": 99.3, "unit": "%"}, {"measurement": "residual activity", "setting": "[29]", "value": 101, "unit": "%"}, {"measurement": "residual activity", "setting": "[30]", "value": 118, "unit": "%"}, {"measurement": "residual activity", "setting": "[31]", "value": 99.8, "unit": "%"}, {"measurement": "residual activity", "setting": "[32]", "value": 107, "unit": "%"}, {"measurement": "residual activity", "setting": "[33]", "value": 98.9, "unit": "%"}, {"measurement": "residual activity", "setting": "[34]", "value": 99.1, "unit": "%"}, {"measurement": "residual activity", "setting": "[35]", "value": 103, "unit": "%"}, {"measurement": "residual activity", "setting": "[36]", "value": 103, "unit": "%"}, {"measurement": "residual activity", "setting": "[37]", "value": 99.4, "unit": "%"}, {"measurement": "residual activity", "setting": "[38]", "value": 105, "unit": "%"}, {"measurement": "residual activity", "setting": "[39]", "value": 97.9, "unit": "%"}, {"measurement": "residual activity", "setting": "[40]", "value": 106, "unit": "%"}, {"measurement": "residual activity", "setting": "[41]", "value": 101, "unit": "%"}]}
{"smiles": "O=c1cc(N2CCOCC2)oc2c(-c3ccccc3)cccc12", "values": [{"measurement": "residual activity", "setting": "[1]", "value": 101, "unit": "%"}, {"measurement": "residual activity", "setting": "[2]", "value": 97.9, "unit": "%"}, {"measurement": "residual activity", "setting": "[3]", "value": 102, "unit": "%"}, {"measurement": "residual activity", "setting": "[4]", "value": 92.4, "unit": "%"}, {"measurement": "residual activity", "setting": "[5]", "value": 96.2, "unit": "%"}, {"measurement": "residual activity", "setting": "[6]", "value": 101, "unit": "%"}, {"measurement": "residual activity", "setting": "[7]", "value": 101, "unit": "%"}, {"measurement": "residual activity", "setting": "[8]", "value": 98.1, "unit": "%"}, {"measurement": "residual activity", "setting": "[9]", "value": 91.9, "unit": "%"}, {"measurement": "residual activity", "setting": "[10]", "value": 100, "unit": "%"}, {"measurement": "residual activity", "setting": "[11]", "value": 110, "unit": "%"}, {"measurement": "residual activity", "setting": "[12]", "value": 97.1, "unit": "%"}, {"measurement": "residual activity", "setting": "[13]", "value": 96.2, "unit": "%"}, {"measurement": "residual activity", "setting": "[14]", "value": 102, "unit": "%"}, {"measurement": "residual activity", "setting": "[15]", "value": 116, "unit": "%"}, {"measurement": "residual activity", "setting": "[16]", "value": 100, "unit": "%"}, {"measurement": "residual activity", "setting": "[17]", "value": 96.3, "unit": "%"}, {"measurement": "residual activity", "setting": "[18]", "value": 111, "unit": "%"}, {"measurement": "residual activity", "setting": "[19]", "value": 93.5, "unit": "%"}, {"measurement": "residual activity", "setting": "[20]", "value": 112, "unit": "%"}, {"measurement": "residual activity", "setting": "[21]", "value": 99.2, "unit": "%"}, {"measurement": "residual activity", "setting": "[22]", "value": 85.4, "unit": "%"}, {"measurement": "residual activity", "setting": "[23]", "value": 47.9, "unit": "%"}, {"measurement": "residual activity", "setting": "[24]", "value": 107, "unit": "%"}, {"measurement": "residual activity", "setting": "[25]", "value": 98.3, "unit": "%"}, {"measurement": "residual activity", "setting": "[26]", "value": 96.8, "unit": "%"}, {"measurement": "residual activity", "setting": "[27]", "value": 103, "unit": "%"}, {"measurement": "residual activity", "setting": "[28]", "value": 109, "unit": "%"}, {"measurement": "residual activity", "setting": "[29]", "value": 103, "unit": "%"}, {"measurement": "residual activity", "setting": "[30]", "value": 101, "unit": "%"}, {"measurement": "residual activity", "setting": "[31]", "value": 95.9, "unit": "%"}, {"measurement": "residual activity", "setting": "[32]", "value": 91.6, "unit": "%"}, {"measurement": "residual activity", "setting": "[33]", "value": 104, "unit": "%"}, {"measurement": "residual activity", "setting": "[34]", "value": 92.4, "unit": "%"}, {"measurement": "residual activity", "setting": "[35]", "value": 95.9, "unit": "%"}, {"measurement": "residual activity", "setting": "[36]", "value": 99.8, "unit": "%"}, {"measurement": "residual activity", "setting": "[38]", "value": 103, "unit": "%"}, {"measurement": "residual activity", "setting": "[39]", "value": 95.9, "unit": "%"}, {"measurement": "residual activity", "setting": "[40]", "value": 97.2, "unit": "%"}, {"measurement": "residual activity", "setting": "[41]", "value": 102, "unit": "%"}]}
